Measured values taken from paper PMC10636135, “Computational design of highly efficient thermostable MHET hydrolases and dual enzyme system for PET recycling” (Communications Biology, 2023).

What was measured:
[1] = tested on: T1, KL36F (fusion of KL-MHETase and FAST-PETase); test: initial rates, TPA by HPLC, Michaelis-Menten fit; assay type: biochemical, Geobacillus stearothermophilus; settings: 50 mM sodium phosphate, pH 7.5, 50 °C
T1 construct: gene est; order judged from name; FAST-PETase moiety also hydrolyses MHET weakly; with Poly(ethylene terephthalate) hydrolase

[2] = biological target: T2, 1EVQ (thermostable scaffold) (Alicyclobacillus acidocaldarius, UniProt Q7SIG1); test: relative MHET hydrolysis activity; assay type: biochemical; settings: 4.8 mM MHET, 0.25 μM enzyme, 50 mM sodium phosphate, pH 7.5, 50 °C, 10 min
T2 construct: synthesized codon-optimized gene, pET-22b(+), E. coli BL21(DE3); named only by PDB code

## O=C(O)c1ccc(C(=O)OCCO)cc1 [MHET]
[1]
  Km: 4.52 ± 0.67 mM
[2]
  relative activity: 1EVQ and 1TQH, exhibited apparent activity with regard to MHET hydrolysis
